# Laboratory results taken from patent publication US20240092835A1, “NOVEL PEPTIDES CAPABLE OF ALTERING NK CELL ACTIVITY” (Massachusetts Institute of Technology, priority 2022, published 2024).
# Experiments:
# [1] = system: NKG2A+/NKG2C− NK cells; test: NK cell activation markers in NKG2A+/NKG2C- NK cells incubated with peptide and K562 expressing HLA-E (inhibition); assay type: cell-based, human; details: for percentage of CCL3+ NK cells / percentage of CD107a+ NK cells / percentage of IFNG+ NK cells / percentage of TNF+ NK cells: NKG2A+/NKG2C- NK cells, K562/HLA-E
# Experimental: (§1) A human immortalized myelogenous leukemia cell line (K562), which expresses HLA-E was incubated with novel peptides (Table 1) derived from the human proteome or human cytomegalovirus proteome. […] Controls assessments were also performed using NKG2A−/NKG2C− cells (Tables 10-13). Inhibition was indicated by a decrease in percent cells positive for cell surface markers, while activation was indicated by an increase in percent cells positive for cell surface markers.
# [2] = target: T1, HLA-E (Homo sapiens, UniProt P13747); test: HLA-E surface stabilization assay with RMA-S/HLA-E cells; assay type: cell-based; details: 30 μM peptide, 16 hours, anti-HLA-E antibody
# T1 construct: expressed in transfected cells; host or cells: RMA-S/HLA-E cells (antigen processing-defective lymphoma cell line)
# T1 sequence (P13747 22-358): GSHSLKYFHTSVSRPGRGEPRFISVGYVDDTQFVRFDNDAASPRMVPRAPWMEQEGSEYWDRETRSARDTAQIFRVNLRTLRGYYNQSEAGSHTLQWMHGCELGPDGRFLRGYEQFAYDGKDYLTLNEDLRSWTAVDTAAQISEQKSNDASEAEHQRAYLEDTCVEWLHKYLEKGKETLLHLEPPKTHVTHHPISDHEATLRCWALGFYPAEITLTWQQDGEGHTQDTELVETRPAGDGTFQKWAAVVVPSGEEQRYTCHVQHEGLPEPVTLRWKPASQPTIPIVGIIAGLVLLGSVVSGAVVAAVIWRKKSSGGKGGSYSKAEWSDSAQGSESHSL
# T1 sequence (P61769 21-119 partner): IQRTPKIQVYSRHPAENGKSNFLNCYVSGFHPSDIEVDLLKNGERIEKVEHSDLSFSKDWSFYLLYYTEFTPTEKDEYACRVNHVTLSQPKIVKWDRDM
# Experimental: HLA-E surface expression was assessed by measuring geometric mean fluorescence intensity (GeoMFI) in RMA-S cells following immunofluorescence staining with an anti-HLA-E antibody (Table 14). Increased GeoMFI was indicative of increased HLA-E surface expression stability following novel peptide exposures (FIG. 3).
# [3] = system: NKG2A−/NKG2C− NK cells; test: NK cell activation markers in control NKG2A-/NKG2C- NK cells incubated with peptide and K562 expressing HLA-E; assay type: cell-based, human
# Experimental: as §1
# [4] = system: NKG2A−/NKG2C+ NK cells; test: NK cell activation markers in NKG2A-/NKG2C+ NK cells incubated with peptide and K562 expressing HLA-E (activation); assay type: cell-based, human; details: for effect on NKG2A−/NKG2C+ NK cell activation (in words): K562 expressing HLA-E, CD107a, IFNG, TNF, CCL3; for percentage of CCL3+ NK cells / percentage of CD107+ NK cells / percentage of IFNG+ NK cells / percentage of TNF+ NK cells: NKG2A-/NKG2C+ NK cells, K562/HLA-E
# Experimental: as §1
sequence,measurement,setting,value
"VMPPRTLLL [human15, peptide HLA-A 3-11 derived from the human proteome]",effect on NKG2A+/NKG2C− NK cell inhibition (in words),"[1]; K562 expressing HLA-E, CD107a, IFNG, TNF, CCL3",strong inhibitory
same,percentage of CCL3+ NK cells,[1]; Trial 1,1.79%
same,percentage of CD107a+ NK cells,[1]; Trial 1,0.49%
same,percentage of IFNG+ NK cells,[1]; Trial 1,0.05%
same,percentage of TNF+ NK cells,[1]; Trial 1,0.01%
same,percentage of CCL3+ NK cells,[1]; Trial 2,1.6%
same,percentage of CD107a+ NK cells,[1]; Trial 2,0.79%
same,percentage of IFNG+ NK cells,[1]; Trial 2,0.3%
same,percentage of TNF+ NK cells,[1]; Trial 2,0.27%
same,percentage of CCL3+ NK cells,[1]; Trial 3,1.12%
same,percentage of CD107a+ NK cells,[1]; Trial 3,0.73%
same,percentage of IFNG+ NK cells,[1]; Trial 3,0.44%
same,percentage of TNF+ NK cells,[1]; Trial 3,0.19%
same,percentage of CCL3+ NK cells,[1]; Trial 4,0.75%
same,percentage of CD107a+ NK cells,[1]; Trial 4,0.75%
same,percentage of IFNG+ NK cells,[1]; Trial 4,0.2%
same,percentage of TNF+ NK cells,[1]; Trial 4,0.18%
same,percentage of CCL3+ NK cells,[1]; Trial 5,3.7%
same,percentage of CD107a+ NK cells,[1]; Trial 5,1.04%
same,percentage of IFNG+ NK cells,[1]; Trial 5,0.19%
same,percentage of TNF+ NK cells,[1]; Trial 5,0.16%
same,percentage of CCL3+ NK cells,[1]; Trial 6,2.09%
same,percentage of CD107a+ NK cells,[1]; Trial 6,0.52%
same,percentage of IFNG+ NK cells,[1]; Trial 6,0.24%
same,percentage of TNF+ NK cells,[1]; Trial 6,0.05%
same,HLA-E surface expression stability (GeoMFI),[2]; Trial 1,3783 GeoMFI
same,HLA-E surface expression stability (GeoMFI),[2]; Trial 2,4068 GeoMFI
same,HLA-E surface expression stability (GeoMFI),[2]; Trial 3,4205 GeoMFI
same,HLA-E surface expression stability (GeoMFI),[2]; Trial 4,4760 GeoMFI
same,percentage CCL3+ NK cells,[3]; Trial 1,34%
same,percentage CD107+ NK cells,[3]; Trial 1,25.7%
same,percentage TNF+ NK cells,[3]; Trial 1,3.42%
same,percentage of IFNG+ NK cells,[3]; Trial 1,15.5%
same,percentage CCL3+ NK cells,[3]; Trial 2,55.5%
same,percentage CD107+ NK cells,[3]; Trial 2,34.1%
same,percentage TNF+ NK cells,[3]; Trial 2,9.68%
same,percentage of IFNG+ NK cells,[3]; Trial 2,25.4%
same,percentage CCL3+ NK cells,[3]; Trial 3,46.7%
same,percentage CD107+ NK cells,[3]; Trial 3,43.7%
same,percentage TNF+ NK cells,[3]; Trial 3,14.8%
same,percentage of IFNG+ NK cells,[3]; Trial 3,34.7%
same,percentage CCL3+ NK cells,[3]; Trial 4,34.3%
same,percentage CD107+ NK cells,[3]; Trial 4,29.6%
same,percentage TNF+ NK cells,[3]; Trial 4,10.3%
same,percentage of IFNG+ NK cells,[3]; Trial 4,20.3%
same,percentage CCL3+ NK cells,[3]; Trial 5,24.7%
same,percentage CD107+ NK cells,[3]; Trial 5,18.9%
same,percentage TNF+ NK cells,[3]; Trial 5,6.97%
same,percentage of IFNG+ NK cells,[3]; Trial 5,14.7%
same,percentage CCL3+ NK cells,[3]; Trial 6,26.4%
same,percentage CD107+ NK cells,[3]; Trial 6,21.1%
same,percentage TNF+ NK cells,[3]; Trial 6,5.43%
same,percentage of IFNG+ NK cells,[3]; Trial 6,11.9%
same,effect on NKG2A−/NKG2C+ NK cell activation (in words),[4]; listed as SEQ ID NO. 14,strong activating effects
same,effect on NKG2A−/NKG2C+ NK cell activation (in words),[4]; listed as h15,strong inhibitory and activating effects
same,percentage of CCL3+ NK cells,[4]; Trial 1,79.5%
same,percentage of CD107+ NK cells,[4]; Trial 1,78.4%
same,percentage of IFNG+ NK cells,[4]; Trial 1,66.7%
same,percentage of TNF+ NK cells,[4]; Trial 1,52.1%
same,percentage of CCL3+ NK cells,[4]; Trial 2,89.7%
same,percentage of CD107+ NK cells,[4]; Trial 2,86%
same,percentage of IFNG+ NK cells,[4]; Trial 2,79.9%
same,percentage of TNF+ NK cells,[4]; Trial 2,71.8%
same,percentage of CCL3+ NK cells,[4]; Trial 3,86.8%
same,percentage of CD107+ NK cells,[4]; Trial 3,88.2%
same,percentage of IFNG+ NK cells,[4]; Trial 3,78.8%
same,percentage of TNF+ NK cells,[4]; Trial 3,68.2%
same,percentage of CCL3+ NK cells,[4]; Trial 4,69%
same,percentage of CD107+ NK cells,[4]; Trial 4,68.9%
same,percentage of IFNG+ NK cells,[4]; Trial 4,60.9%
same,percentage of TNF+ NK cells,[4]; Trial 4,52.6%
same,percentage of CCL3+ NK cells,[4]; Trial 5,78.9%
same,percentage of CD107+ NK cells,[4]; Trial 5,78%
same,percentage of IFNG+ NK cells,[4]; Trial 5,71.9%
same,percentage of TNF+ NK cells,[4]; Trial 5,66.6%
same,percentage of CCL3+ NK cells,[4]; Trial 6,58.4%
same,percentage of CD107+ NK cells,[4]; Trial 6,56.2%
same,percentage of IFNG+ NK cells,[4]; Trial 6,44.1%
same,percentage of TNF+ NK cells,[4]; Trial 6,36.3%
